Source: patent US20200023038A1, “METHOD OF TREATING NEOPLASIAS” (PARANTA BIOSCIENCES LIMITED, priority 2015, published 2020)
“Also recorded” adds a separate entry of the source.

How the values were obtained:
TAK1 = assay: Western blot of phospho-TAK1; assay type: cell-based, human
Method: Cell lysates were prepared using RIPA buffer with the addition of Halt Protease and Phosphatase Inhibitor Cocktails. Gel electrophoresis and transfer was performed using the BioRad MiniProtean System according to manufacturer's instructions. Phospho-TAK1 was detected using the combination of Rabbit anti-Phospho-TAK1 and anti-Rabbit IgG, HRP linked primary and secondary antibodies respectively.

[1] = system: A549 lung adenocarcinoma cells; assay: Sensitization of cells to platinum/alkylating agent with TGFBR1 and ACVR1B inhibitor; assay type: cell-based, human
Method: 10,000 cells per well were plated in to a 96 well plate. […] Plates are left to incubate for 3 days with an Alamar Blue reading performed at end point.
(§1) 5000 cells per well were plated in quadruplicates in RPMI with 1% heat-inactivated NCS (HiNCS) and Glutamax and allowed to adhere overnight. Media was then removed and either vehicle or 5 μM SB-505124 was added and incubated for 24 hours. Media was then removed and replaced with media containing increasing concentrations of carboplatin with either vehicle or 5 μM SB-505124. After 3 days of incubation Alamar Blue was added and plates were incubated for 2.5 hours before being read using Fluostar Optima Plate Reader.

NCI-H358 = assay: Sensitization of cells to platinum with TGFBR1 and ACVR1B inhibitor; assay type: cell-based, human; details: NCI-H358, 5 μM SB-505124 pre-treatment 24 hours, then carboplatin 3 days
Method: as §1

[2] = system: A549 lung adenocarcinoma cell line; assay: Innate platinum responsiveness, Alamar Blue viability over carboplatin concentrations; assay type: cell-based, human; details: chemonaive A549, 3 days
Method: The A549 lung adenocarcinoma cell line was originally derived from a smoker prior to treatment with chemotherapy. This chemonaive cell line carrying a common KRAS mutation was chosen as the primary cell line for modelling innate platinum responsiveness. Platinum responsiveness of A549 lung adenocarcinoma cell line was assessed against a wide range of carboplatin concentrations. […] 10,000 cells per well were plated in to a 96 well plate. […] Plates are left to incubate for 3 days with an Alamar Blue reading performed at end point. Curves of cell death in response to the respective alkylating agent were generated by graphing fluorescence (as a measure of cell viability) vs the alkylating agent concentration.

LX22CL cells = assay: as above; assay type: cell-based, human; details: chemonaive SCLC line LX22CL, 3 days
A549 flank xenografts = assay: In vivo modelling of platinum resistance, xenograft; set-up: species or system athymic nude mice; details: carboplatin 60 mg/kg day 0 or 2 μg FST day −1, +1, +3, +5, intraperitoneally
Method: Follistatin (FST) is a molecule that is known for its role in regulating the activities of TGFβ superfamily members, including activin and GDF11, both of which were identified as important players in chemoresistance of non-small cell lung carcinoma (NSCLC) cells (see Example 2). Therefore, the effects of FST on inducing sensitization of NSCLC cells to platinum therapy were assessed in an in vivo xenograft model. Athymic nude mice bearing A549 flank xenografts were treated with combinations of vehicle control, 60 mg/kg carboplatin on day 0, and/or 2 μg FST on day -1, +1, +3 and +5. Five mice were randomized in to each of the treatment groups and treatments started when the tumour size was 200 mm^3. Tumour volumes were measured daily and the animals were culled when the tumour size reached over 500 mm^3. Athymic nude mice bearing A549 flank xenografts were treated with combinations of vehicle control, 60 mg/kg carboplatin on day 0, and/or 2 μg FST on day -1, +1, +3 and +5 administered intraperitoneally. Recombinant human Follistatin 288 (FST) was used in all experiments. FST was provided by […] Biosciences Ltd.

[3] = system: A549 lung adenocarcinoma cells; assay: DNA damage response, γH2AX confocal immunofluorescence; assay type: cell-based, human; details: 24 hr carboplatin, increasing concentrations
Method: DNA damage induced by platinum was visualised by confocal immunofluorescence microscopy. A549 lung adenocarcinoma cells were treated with appropriate primary and secondary antibodies to visualise γH2AX and the DNA counterstain DAPI following 24 hr treatment with increasing concentrations of carboplatin.

[4] = background statement; cited from earlier work

In the case of `Cc1cccc(-c2[nH]c(C(C)(C)C)nc2-c2ccc3c(c2)OCO3)n1` [SB-505124], the “activation of TAK1 (phosphorylated TAK1 level)” value (TAK1; A549 and NCI-H358 cells, SB-505124 pre-treatment then carboplatin) is reported as “inhibited the activation of TAK1”, the “sensitization to platinum (carboplatin)” value ([1]; A549, 5 μM SB-505124 pre-treatment 24 hours, then carboplatin 3 days) is reported as “induced sensitization to platinum; also recorded: sensitized” and the sensitization to busulfan ([1]; A549, SB-505124 pre-treatment then busulfan range) is reported as “showed sensitization”. The sensitization to cisplatin ([1]; A549, SB-505124 pre-treatment then cisplatin range) was “showed sensitization” and the “sensitization to platinum (carboplatin)” value (NCI-H358) was “showed sensitization to platinum; also recorded: sensitized”.

In the case of `N.N.O=C([O-])C1(C(=O)[O-])CCC1.[Pt+2]` [carboplatin], the “phosphorylated TAK1 (activated form) levels” value (TAK1; cells treated with carboplatin) is reported as “upregulated”, the “platinum responsiveness (survival against carboplatin concentration)” value [2] is reported as “exhibits an active resistance mechanism” and the “platinum responsiveness (survival against carboplatin concentration)” value (LX22CL cells) is reported as “shows sensitivity to carboplatin”. For the same molecule, the “tumour growth, agent alone” value (A549 flank xenografts) was “did not affect tumour growth” and the “DNA damage (γH2AX)” value [3] was “effect DNA damage, at much lower concentrations than is required to induce cell death”.

For `N.N.[Cl][Pt][Cl]` [trans-DDP, trans-diamminedichloroplatinum (II)], the activity against tumours [4] is given as “ineffective against tumours”.
